# Assay results reported in patent US9963463B2, “Urea-substituted indanes as P38 map kinase inhibitors” (TORRENT PHARMACEUTICALS LIMITED, priority 2014, dated 2018).
# Assays:
# [1] = test system: cigarette smoke induced Neutrophil accumulation in BAL Fluid; assay: Acute mouse model of airway inflammation (tobacco smoke), BAL neutrophils; type: in vivo; settings: mice, aerosol exposure 25 minutes; for Neutrophil (*10^3 cells/animal): BAL fluid, Mean ± SEM; for % Inhibition: neutrophil vs vehicle group
# Excerpt: In vivo efficacy evaluation of compounds in animal model of airway inflammation: The tobacco smoke induced airway inflammation model is used for in-vivo efficacy of compound. Many investigators have used acute tobacco smoke (TS) exposure in rodents as models of airway inflammation for quick screening of anti-inflammatory therapies (J Pharmacol Exp Ther. 2008; 324(3):921-9; J Pharmacol Exp Ther. 2010; 332(3):764-75; Journal of Inflammation 2013, 10(Suppl 1):31 and Eur Respir J Suppl 2006; 663s:3850).
# A: Efficacy Studies in Acute Mouse Model of Airway Inflammation
# Mice were exposed to tobacco smoke (TS) in an acrylic chamber. Animals were exposed to TS from 8, 12, 16 cigarettes on day 1, day 2, day 3 respectively. From day 4 onwards till day 11, animals were exposed to TS from 20 cigarettes per day. Like human COPD associated inflammation, acute exposure of mice to TS induced significant inflammatory cell, predominantly neutrophil recruitment to lungs as compared to air exposed control mice (BALF neutrophil levels, nil in air control group vs 178±29.1*10^3 cells/animal in smoke exposed vehicle group).
# Lung delivery of test compound was achieved by whole body aerosol exposure for 25 minutes in a chamber. Mice were divided in different dose groups and exposed in a chamber for 25 minutes with vehicle or Compound 12 (0.3 mg/ml) or Compound 12 (3 mg/ml). A total quantity of 3.5 ml of either vehicle or test compound formulation was nebulized in a chambers to respective groups over 25 mins period. Test compounds were administered 2 hr prior to TS exposure from day 6 to day 11. Bronchoalveolar lavage (BAL) was performed 24 hr post last TS exposure.
# Trachea of animal was cannulated using catheter. Phosphate Buffer Saline (PBS) was used as lavage fluid. A volume of 0.5 ml was gently instilled and withdrawn and collected in microcentrifuge tube placed on ice. This procedure was repeated further 2 times.
# Lavage fluid was separated from cells by centrifugation and supernatant separated. The cell pallet was resuspended in known volume of PBS. Cells in aliquot were stained using Turk solution and total cell numbers were calculated by counting Turk stained aliquot under microscope using haemocytometer.
# The residual cell suspension was resuspended and slides prepared using cyto centrifuge technique (Cytospin 4, Thermo Shandon). The slides were then fixed with methanol, air dried and stained with May Grunwald Giemsa stain. Up to 300 cells were counted and differentiated using standard morphometric techniques under light microscopy.
# All results are presented at individual data for each animal and mean value calculated for each group. Percentage inhibition for the neutrophil was calculated for Compound 12 treatment group against vehicle group. Results are summarized herein below: […]
# [2] = biological target: T1, purified recombinant human p38 alpha MAPK (Homo sapiens, UniProt Q16539); assay: Inhibition of p38 alpha MAPK activity, TR-FRET kinase assay; type: biochemical; settings: read-out: P38α Inhibition; for inhibition at 1 µM: Concentration 1 μM
# T1 construct: purchased Millipore, USA
# T1 sequence (Q16539 whole entry): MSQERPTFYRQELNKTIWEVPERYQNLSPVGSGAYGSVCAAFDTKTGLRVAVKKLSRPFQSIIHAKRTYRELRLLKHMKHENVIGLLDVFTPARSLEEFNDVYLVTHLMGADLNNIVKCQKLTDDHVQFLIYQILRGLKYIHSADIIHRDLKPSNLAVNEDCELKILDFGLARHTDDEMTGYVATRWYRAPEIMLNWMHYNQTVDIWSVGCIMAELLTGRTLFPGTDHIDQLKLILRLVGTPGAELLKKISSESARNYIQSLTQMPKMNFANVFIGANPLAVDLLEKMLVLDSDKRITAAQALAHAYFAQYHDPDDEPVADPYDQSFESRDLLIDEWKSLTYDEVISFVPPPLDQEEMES
# Method in brief: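 Recombinant human p38α preincubated 15 min at RT with compound (0.5–1.0% DMSO), then 30 nM biotinylated GST-ATF2 and 100 μM ATP added for 60 min at RT. Stopped with EDTA; Eu-anti-phospho-ATF2 and APC-streptavidin detection, 60 min. % inhibition from 665/615 nm TR-FRET ratio.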
Compound,inhibition at 1 µM [2] [%],other results
"Cc1ccc(-n2nc(C(C)(C)C)cc2NC(=O)Nc2ccc(OCCN3CCN(CC4CC4)C(=O)C3)c3c2CCC3)cc1 [Compound 12, 1-[3-tert-butyl-1-(4-methylphenyl)-1H-pyrazol-5-yl]-3-(7-{2-[4-(cyclopropylmethyl)-3-oxopiperazin-1-yl]ethoxy}-2,3-dihydro-1H-inden-4-yl)urea]",80 to 100,Neutrophil (*10^3 cells/animal) ([1]; formulation strength 0.3 mg/ml): 107 ± 18.5 *10^3 cells/animal; Neutrophil (*10^3 cells/animal) ([1]; formulation strength 3 mg/ml): 69.6 ± 11.1 *10^3 cells/animal; % Inhibition ([1]; formulation strength 0.3 mg/ml): 40%; % Inhibition ([1]; formulation strength 3 mg/ml): 61%
"COc1c(NC(=O)Nc2ccc(OCCN3CCn4c(nnc4-c4ccccc4O)C3)c3c2CCC3)cc(C(C)(C)C)cc1NS(C)(=O)=O [Compound 40, N-(5-tert-butyl-3-{[(7-{2-[3-(2-hydroxyphenyl)-5,6-dihydro[1,2,4]triazolo[4,3-a]pyrazin-7(8H)-yl]ethoxy}-2,3-dihydro-1H-inden-4-yl)carbamoyl]amino}-2-methoxyphenyl)methanesulfonamide]",80 to 100,–
"CC(C)(C)c1cc(NC(=O)Nc2ccc(OCCN3CCn4c(nnc4C4CCCCC4)C3)c3c2CCC3)n(-c2ccc(O)c(Cl)c2)n1 [Compound 65, 1-[3-tert-butyl-1-(3-chloro-4-hydroxyphenyl)-1H-pyrazol-5-yl]-3-{7-[2-(3-cyclohexyl-5,6-dihydro[1,2,4]triazolo[4,3-a]pyrazin-7(8H)-yl)ethoxy]-2,3-dihydro-1H-inden-4-yl}urea]",20 to 40,–
"COc1c(NC(=O)Nc2ccc(OCCN3CCN(CC4CC4)C(=O)C3)c3c2CCC3)cc(C(C)(C)C)cc1NS(C)(=O)=O [Compound 39, N-(5-tert-butyl-3-{[(7-{2-[4-(cyclopropylmethyl)-3-oxopiperazin-1-yl]ethoxy}-2,3-dihydro-1H-inden-4-yl)carbamoyl]amino}-2-methoxyphenyl)methanesulfonamide]",80 to 100,–
"COc1c(NC(=O)Nc2ccc(OCCN3CCN(CC4CC4)C(=O)C3)c3c2CCC3)cc(C(C)(C)C)cc1NC(=O)C1CC1 [Compound 64, N-(5-tert-butyl-3-{[(7-{2-[4-(cyclopropylmethyl)-3-oxopiperazin-1-yl]ethoxy}-2,3-dihydro-1H-inden-4-yl)carbamoyl]amino}-2-methoxyphenyl)cyclopropanecarboxamide]",20 to 40,–
"CCCSc1ccccc1-c1nnc2n1CCN(CCOc1ccc(NC(=O)Nc3cc(C(C)(C)C)cc(NS(C)(=O)=O)c3OC)c3c1CCC3)C2 [Compound 42, N-[5-tert-butyl-2-methoxy-3-({[7-(2-{3-[2-(propylsulfanyl)phenyl]-5,6-dihydro[1,2,4]triazolo[4,3-a]pyrazin-7(8H)-yl}ethoxy)-2,3-dihydro-1H-inden-4-yl]carbamoyl}amino)phenyl]methanesulfonamide]",80 to 100,–
"Cc1ccc(-n2nc(C(C)(C)C)cc2NC(=O)Nc2ccc(OCC(=O)N3CCn4c(nnc4C(F)(F)F)C3)c3c2CCC3)cc1 [Compound 1, 1-[3-tert-butyl-1-(4-methylphenyl)-1H-pyrazol-5-yl]-3-(7-{2-oxo-2-[3-(trifluoromethyl)-5,6-dihydro[1,2,4]triazolo[4,3-a]pyrazin-7(8H)-yl]ethoxy}-2,3-dihydro-1H-inden-4-yl)urea]",80 to 100,–
"COc1c(NC(=O)Nc2ccc(OCCN3CCn4c(nnc4-c4cccc(O)c4)C3)c3c2CCC3)cc(C(C)(C)C)cc1NS(C)(=O)=O [Compound 46, N-(5-tert-butyl-3-{[(7-{2-[3-(3-hydroxyphenyl)-5,6-dihydro[1,2,4]triazolo[4,3-a]pyrazin-7(8H)-yl]ethoxy}-2,3-dihydro-1H-inden-4-yl)carbamoyl]amino}-2-methoxyphenyl)methanesulfonamide]",–,inhibition at 0.1 µM ([2]; Concentration 100 nM): 60 to 80%
"Cc1ccc(-n2nc(C(C)(C)C)cc2NC(=O)Nc2ccc(OCC(=O)N3CCn4c(nnc4C(F)(F)F)C3)c3c2CCC3)cc1Cl [Compound 56, 1-[3-tert-butyl-1-(3-chloro-4-methylphenyl)-1H-pyrazol-5-yl]-3-(7-{2-oxo-2-[3-(trifluoromethyl)-5,6-dihydro[1,2,4]triazolo[4,3-a]pyrazin-7(8H)-yl]ethoxy}-2,3-dihydro-1H-inden-4-yl)urea]",40 to 60,–

# The next lines start with results.
inhibition at 1 µM [2] [%],Compound,other results
80 to 100,"CSc1ccccc1-c1nnc2n1CCN(C(=O)COc1ccc(NC(=O)Nc3cc(C(C)(C)C)nn3-c3ccccc3)c3c1CCC3)C2 [Compound 7, 1-(3-tert-butyl-1-phenyl-1H-pyrazol-5-yl)-3-[7-(2-{3-[2-(methylsulfanyl)phenyl]-5,6-dihydro[1,2,4]triazolo[4,3-a]pyrazin-7(8H)-yl}-2-oxoethoxy)-2,3-dihydro-1H-inden-4-yl]urea]",–
40 to 60,"COc1c(NC(=O)Nc2ccc(OCCN3CCn4c(nnc4C4CCCCC4)C3)c3c2CCC3)cc(C(C)(C)C)cc1NS(C)(=O)=O [Compound 72, N-{5-tert-butyl-3-[({7-[2-(3-cyclohexyl-5,6-dihydro[1,2,4]triazolo[4,3-a]pyrazin-7(8H)-yl)ethoxy]-2,3-dihydro-1H-inden-4-yl}carbamoyl)amino]-2-methoxyphenyl}methanesulfonamide]",–
60 to 80,"CCCN1CCN(CCOc2ccc(NC(=O)Nc3cc(C(C)(C)C)nn3-c3ccc(C)cc3)c3c2CCC3)CC1=O [Compound 59, 1-[3-tert-butyl-1-(4-methylphenyl)-1H-pyrazol-5-yl]-3-{7-[2-(3-oxo-4-propylpiperazin-1-yl)ethoxy]-2,3-dihydro-1H-inden-4-yl}urea]",–
80 to 100,"Cc1ccc(-n2nc(C(C)(C)C)cc2NC(=O)Nc2ccc(OCCN3CCN(CC4CCCC4)C(=O)C3)c3c2CCC3)cc1 [Compound 21, 1-[3-tert-butyl-1-(4-methylphenyl)-1H-pyrazol-5-yl]-3-(7-{2-[4-(cyclopentylmethyl)-3-oxopiperazin-1-yl]ethoxy}-2,3-dihydro-1H-inden-4-yl)urea]",–
